Test results published in US11891396B1, “5-substituted pyrido[3″,4″:4′,5′]pyrrolo[3′,2′:4,5]imidazo[1,2-a]pyrazine compounds as CK2 inhibitors” (KING FAISAL UNIVERSITY, priority 2023, dated 2024).

Columns and labels:
H1299 (lung) = assay: In vitro cytotoxic activity assay (MTT), H1299; format: cell-based; settings: Homo sapiens, NCI-H1299; H1299 (lung) cells, exposed for 96 hours; read-out: IC50, concentration eliciting 50% inhibition of cell proliferation
Experimental: (§1) Compounds 1-15 were screened for their in vitro cytotoxic activity utilizing a 3-(4,5-dimethyl-thiazol-2-yl)-2,5-diphenyltetrazolium bromide (MTT) assay against selected cancer human cell lines consisting of PC3 (prostate), HCT116 (colon), A375 (melanoma), H1299 (lung), MIAPaCa-2 (pancreas), HL60 (leukemia), MCF7 (breast), MDA-MB-231 (breast) (T. Mosmann, J. Immunol. Meth., 1983, 65, 55-63). The cells were cultured at 37° C. in RMPI1640 medium supplemented with 10% fetal bovine serum, 50 IU/mL penicillin, and 50 μg/mL streptomycin in a 5% CO2 incubator. All cells were sub-cultured 3 times/week by trypsinisation. Viable cells were seeded and allowed to adhere for 12 h before a test drug was added in 96-well plates at an initial density of 1.0×10^5 cells/mL. Tumour cell lines were separately exposed to various concentrations of the tested compounds followed by incubation at a temperature of 37° C. during 96 h inside a medium of fresh RMPI 1640. Cells were subsequently incubated at 37° C. using MTT at 0.5 mg/mL during 4 h. After removal of supernatant, formazan crystals were dissolved in isopropanol and the optical density was measured at 570 nm. CX-4945 was used as a positive control.

MIAPaCa-2 (pancreas) = assay: In vitro cytotoxic activity assay (MTT), MIAPaCa-2; format: cell-based; settings: Homo sapiens, MIA PaCa-2; MIAPaCa-2 (pancreas) cells, exposed for 96 hours; read-out: IC50, concentration eliciting 50% inhibition of cell proliferation
Experimental: as §1

MDA-MB-231 (breast) = assay: In vitro cytotoxic activity assay (MTT), MDA-MB-231; format: cell-based; settings: Homo sapiens; MDA-MB-231 (breast) cells, exposed for 96 hours; read-out: IC50, concentration eliciting 50% inhibition of cell proliferation
Experimental: as §1

HL60 (leukemia) = assay: In vitro cytotoxic activity assay (MTT), HL60; format: cell-based; settings: Homo sapiens, HL-60; HL60 (leukemia) cells, exposed for 96 hours; read-out: IC50, concentration eliciting 50% inhibition of cell proliferation
Experimental: as §1

recombinant human CK2 = target: T1, recombinant human CK2 (Homo sapiens, UniProt P68400); assay: CK2 Kinase Assay (33P-ATP, substrate peptide RRRDDDSDDD); format: biochemical; settings: final ATP concentration 15 μM, 10 min at 30° C.; read-out: protein kinase CK2 IC50
T1 construct: purchased Millipore
T1 sequence (P68400 whole entry): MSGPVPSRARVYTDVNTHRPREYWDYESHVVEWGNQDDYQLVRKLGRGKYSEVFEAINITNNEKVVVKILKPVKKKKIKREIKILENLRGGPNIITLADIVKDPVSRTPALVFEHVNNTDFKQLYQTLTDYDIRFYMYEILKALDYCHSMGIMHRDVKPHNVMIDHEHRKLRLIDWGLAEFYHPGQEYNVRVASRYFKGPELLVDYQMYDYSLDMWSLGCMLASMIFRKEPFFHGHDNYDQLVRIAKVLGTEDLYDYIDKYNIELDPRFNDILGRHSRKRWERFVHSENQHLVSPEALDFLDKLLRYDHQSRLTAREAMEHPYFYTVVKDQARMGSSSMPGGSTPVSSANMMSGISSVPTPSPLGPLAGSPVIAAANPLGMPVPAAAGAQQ
T1 sequence (P67870 whole entry partner): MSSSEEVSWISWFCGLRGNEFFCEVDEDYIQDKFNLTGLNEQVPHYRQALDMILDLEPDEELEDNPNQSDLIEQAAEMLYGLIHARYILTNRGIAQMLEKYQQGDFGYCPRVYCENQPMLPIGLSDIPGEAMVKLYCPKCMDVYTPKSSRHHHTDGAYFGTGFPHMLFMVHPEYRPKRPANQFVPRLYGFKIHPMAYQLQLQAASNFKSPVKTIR
Experimental: CK2 Kinase Assay was conducted using the protocol as described in Pierre F. et al; J. Med. Chem. 2011, 54, 635-654. The tested compounds in aqueous solution were added at a volume of 10 μL to a reaction mixture comprising 10 μL of assay dilution buffer (ADB; 20 mM MOPS, pH 7.2, 25 mM β-glycerol phosphate, 5 mM EGTA, 1 mM sodium orthovanadate, and 1 mM dithiothreitol), 10 μL of substrate peptide (RRRDDDSDDD, dissolved in ADB at a concentration of 1 mM), 10 μL of recombinant human CK2 (RROP-holoenzyme, 25 ng dissolved in ADB; Millipore). Reactions were initiated by the addition of 10 μL of ATP solution (90% 75 mMMgCl2, 75 μM ATP (final ATP concentration: 15 μM) dissolved in ADB; 10% [γ-33P] ATP (stock 1 mCi/100 L; 3000 Ci/mmol (Perkin-Elmer) and maintained for 10 min at 30° C. The reactions were quenched with 100 μL of 0.75% phosphoric acid and then transferred to and filtered through a phosphor cellulose filter plate (Millipore). After washing each well five times with 0.75% phosphoric acid, the plate was dried under vacuum for 5 min and, following the addition of 15 μL of scintillation fluid to each well, the residual radioactivity was measured using a Wallac luminescence counter. The IC50 values were derived from eight concentrations of test inhibitors.

MCF7 (breast) = assay: In vitro cytotoxic activity assay (MTT), MCF7; format: cell-based; settings: Homo sapiens; MCF7 (breast) cells, exposed for 96 hours; read-out: IC50, concentration eliciting 50% inhibition of cell proliferation
Experimental: as §1

HCT116 (colon) = assay: In vitro cytotoxic activity assay (MTT), HCT116; format: cell-based; settings: Homo sapiens, HCT-116; HCT116 (colon) cells, exposed for 96 hours; read-out: IC50, concentration eliciting 50% inhibition of cell proliferation
Experimental: as §1

PC3 (prostate) = assay: In vitro cytotoxic activity assay (MTT), PC3; format: cell-based; settings: Homo sapiens, Prostate cell; PC3 (prostate) cells, exposed for 96 hours; read-out: IC50, concentration eliciting 50% inhibition of cell proliferation
Experimental: as §1

A375 (melanoma) = assay: In vitro cytotoxic activity assay (MTT), A375; format: cell-based; settings: Homo sapiens, A-375; A375 (melanoma) cells, exposed for 96 hours; read-out: IC50, concentration eliciting 50% inhibition of cell proliferation
Experimental: as §1

IC50 (recombinant human CK2): 47 nM
Compound: Clc1cccc(-n2c3ccncc3c3nc4cnccn4c32)c1 [Compound 1, 5-(3-chlorophenyl)-5H-pyrido[3″,4″:4′,5′]pyrrolo[3′,2′:4,5]imidazo[1,2-a]pyrazine]
IC50 (H1299 (lung)): 2100 nM
IC50 (MIAPaCa-2 (pancreas)): 1200 nM
IC50 (MDA-MB-231 (breast)): 3900 nM
IC50 (HL60 (leukemia)): 3000 nM
IC50 (MCF7 (breast)): 5600 nM
IC50 (HCT116 (colon)): 1900 nM
IC50 (PC3 (prostate)): 1500 nM
IC50 (A375 (melanoma)): 4400 nM
